Results: ChEMBL document CHEMBL3734692, “Design and synthesis of 2-oxindole based multi-targeted inhibitors of PDK1/Akt signaling pathway for the treatment of glioblastoma multiforme” (Eur J Med Chem, 2015)
Calls of active or inactive are those of the source. No cut-off for these calls is given here.

Experiments:
[1] = tested on: ASPC1; test: Cytotoxicity against human AsPC1 cells assessed as cell viability 10 uM after 72 hrs by cell counting analysis relative to control; type: functional
[2] = target: RAC-alpha serine/threonine-protein kinase (Homo sapiens) (UniProt P31749); test: Inhibition of recombinant Akt1 (unknown origin) incubated for 1 hr by Z'Lyte assay
Chain of RAC-alpha serine/threonine-protein kinase (Homo sapiens) (P31749 whole entry): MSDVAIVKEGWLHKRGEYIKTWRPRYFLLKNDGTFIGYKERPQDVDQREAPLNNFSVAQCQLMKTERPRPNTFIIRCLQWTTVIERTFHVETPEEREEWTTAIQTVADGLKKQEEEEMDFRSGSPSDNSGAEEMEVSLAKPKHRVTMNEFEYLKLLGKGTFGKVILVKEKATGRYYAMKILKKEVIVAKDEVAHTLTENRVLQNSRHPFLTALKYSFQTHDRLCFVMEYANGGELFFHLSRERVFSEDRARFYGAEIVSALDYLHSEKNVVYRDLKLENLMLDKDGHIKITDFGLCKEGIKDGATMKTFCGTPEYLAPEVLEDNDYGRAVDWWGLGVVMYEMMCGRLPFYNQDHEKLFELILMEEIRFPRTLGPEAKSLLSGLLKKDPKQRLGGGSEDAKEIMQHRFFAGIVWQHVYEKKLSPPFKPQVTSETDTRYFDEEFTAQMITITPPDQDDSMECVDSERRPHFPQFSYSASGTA

[3] = target: T1, 3-phosphoinositide-dependent protein kinase 1 (Homo sapiens, UniProt O15530); test: Inhibition of PDK1 (unknown origin) incubated for 1 hr by Z'Lyte assay
T1 sequence (O15530 whole entry): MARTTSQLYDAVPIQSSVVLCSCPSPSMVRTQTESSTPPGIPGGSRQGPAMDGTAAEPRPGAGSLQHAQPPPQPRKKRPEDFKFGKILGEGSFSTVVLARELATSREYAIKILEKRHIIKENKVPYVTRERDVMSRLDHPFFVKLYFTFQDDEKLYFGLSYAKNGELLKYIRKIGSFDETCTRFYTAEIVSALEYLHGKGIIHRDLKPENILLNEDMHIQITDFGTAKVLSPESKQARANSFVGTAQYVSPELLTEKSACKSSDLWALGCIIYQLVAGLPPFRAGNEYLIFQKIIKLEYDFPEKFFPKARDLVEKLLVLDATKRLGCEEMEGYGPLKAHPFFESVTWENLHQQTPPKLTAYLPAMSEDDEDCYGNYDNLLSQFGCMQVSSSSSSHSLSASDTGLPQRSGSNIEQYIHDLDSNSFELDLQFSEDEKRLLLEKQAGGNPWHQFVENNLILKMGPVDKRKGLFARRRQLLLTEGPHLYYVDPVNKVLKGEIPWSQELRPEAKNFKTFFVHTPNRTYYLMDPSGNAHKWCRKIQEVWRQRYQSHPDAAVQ

[4] = tested on: U-118-MG; test: Antiproliferative activity against human U118MG cells assessed as inhibition of cell growth at 100 uM after 72 hrs by WST1 assay; type: functional, cell-based

Row | Compound | Activity [1] [%] | also measured
1 | COc1cc2c(cc1OC)CN(CC(=O)Nc1ccc3c(c1)/C(=C\c1nccn1C)C(=O)N3)CC2 | 82.34 | 
2 | CSc1ccc(NC(=O)Nc2ccc3c(c2)/C(=C\c2nccn2C)C(=O)N3)cc1 | 95.13 | 
3 | COc1ccc(CNCC(=O)Nc2ccc3c(c2)/C(=C/c2cccs2)C(=O)N3)cc1OC | 86.75 | 
4 | CS(=O)(=O)Nc1ccc2c(c1)/C(=C/c1cnc[nH]1)C(=O)N2 | 73.83 | inhibition [2]: inactive; IC50 [3]: 0.31 µM
5 | CSc1ccc(NC(=O)Nc2ccc3c(c2)/C(=C/c2cccs2)C(=O)N3)cc1 | 77.29 | 
6 | Cn1ccnc1/C=C1/C(=O)Nc2ccc(NS(C)(=O)=O)cc21 | 96.23 | 
7 | CSc1ccc(NC(=O)Nc2ccc3c(c2)/C(=C/c2cnc[nH]2)C(=O)N3)cc1 | 82.94 | 
8 | COc1cc2c(cc1OC)CN(CC(=O)Nc1ccc3c(c1)/C(=C/c1cccs1)C(=O)N3)CC2 | 82.04 | 
9 | Cn1nnc2c(C(N)=O)ncn2c1=O |  | growth inhibition (GI) [4]: inactive
10 | CS(=O)(=O)Nc1ccc2c(c1)/C(=C/c1cccs1)C(=O)N2 | 68.06 | inhibition [2]: inactive; IC50 [3]: 6.81 µM
11 | CS(=O)(=O)c1ccc(NC(=O)Nc2ccc3c(c2)/C(=C/c2cnc[nH]2)C(=O)N3)cc1 | 82.21 | 
12 | COc1ccc(CNS(=O)(=O)c2ccc3c(c2)/C(=C\c2nccn2C)C(=O)N3)cc1OC | 84.5 | 
13 | Cn1ccnc1/C=C1/C(=O)Nc2ccc(NC(=O)Nc3ccc(S(C)(=O)=O)cc3)cc21 | 90.57 | 
14 | COc1ccc(CNS(=O)(=O)c2ccc3c(c2)/C(=C/c2cccs2)C(=O)N3)cc1OC | 84.18 | 
15 | CS(=O)(=O)c1ccc(NC(=O)Nc2ccc3c(c2)/C(=C/c2cccs2)C(=O)N3)cc1 | 93.88 | 
